The values below come from patent US7090834B1, “Vascular endothelial cell growth factor variants and uses thereof” (Genentech, Inc., priority 1999, dated 2006).

In test [1] the test system is PLC-gamma in HUVEC cells. The experiment in a line: PLC-gamma tyrosine phosphorylation after immunoprecipitation. Format: cell-based, human. To be noted: 20 ng/ml, 5 minutes, FIG. 13A. The procedure: In order to determine which VEGF receptor(s) are involved in PLC-gamma activation in primary endothelial cells, HUVEC cells were treated with native VEGF or VEGF receptor-selective variants and PLC-gamma phosphorylation was assessed after immunoprecipitation.
Passage 4–7 HUVEC cells (Cell Systems, Kirkland, Wash.) were grown in Cell System's complete medium (AZ0-500) with 10% fetal calf serum and growth factors on gelatin-coated dishes and made quiescent by 14 hour starvation in 0.2% serum. […] The cells were then lysed in 0.5–1 ml RIPA buffer containing 0.1 mM sodium orthovanadate, 5 mM para-nitrophenylphosphate, 10 mM sodium fluoride, 0.5 micromolar okadaic acid and a protease inhibitor cocktail (Roche MB 1836145). PLC-gamma was then immunoprecipitated from whole cell lysates using monoclonal antibodies (Upstate Biotechnology) and analyzed for tyrosine phosphorylation (FIG. 13A) or lysates were immunoprecipitated with monoclonal antibodies against p85 PI 3′-kinase (purchased from Transduction Labs (P13020) and Neomarkers (MS424-P)) and tested for phosphotyrosine using phosphotyrosine antibodies PY20 or E120H (Transduction Labs) (FIG. 13B). Immunoprecipitation was conducted as follows. Protein A/G beads (Pierce) were blocked for nonspecific protein binding in 50 mM HEPES pH 7.2, 0.1% TX-100, 150 mM NaCl and 1 mg/ml ovalbumin for 30 minutes. Antibodies were precoupled in the same buffer for 1 hour at 4° C. with head over end rotation and beads were washed 3 times in lysis buffer. Beads were added to the lysates and rotated overnight. Beads were washed sequentially in 50 mM Tris pH 7.6, 150 mM NaCl, 1% TX-100, 1 mM CaCl2; 50 mM Tris pH 7.6, 500 mM NaCl, 0.1% TX-100, 1 mM CaCl2 and 50 mM Tris pH 7.6, 150 mM NaCl, 0.05% TX-100, 1 mM CaCl2. Beads were then resuspended in 2× sample buffer and boiled. Supernatants were applied directly to 4–12% Tris-Glycine gradient gels (Novex).

In test [2] the test system is ERK1 and ERK2 in HUVEC cells. Briefly: Activation of MAP kinases, ERK1/ERK2 phosphorylation Western blot. To be noted: 50 ng/ml or 10 ng/ml, 5 minutes, FIG. 12A. Format: cell-based, human. The procedure: Passage 4–7 HUVEC cells (Cell Systems, Kirkland, Wash.) were grown in Cell System's complete medium (AZ0-500) with 10% fetal calf serum and growth factors on gelatin-coated dishes and made quiescent by 14 hour starvation in 0.2% serum. […] The HUVEC cells were then lysed in 0.5–1 ml RIPA buffer containing 0.1 mM sodium orthovanadate, 5 mM para-nitrophenylphosphate, 10 mM sodium fluoride, 0.5 micromolar okadaic acid and a protease inhibitor cocktail (Roche MB 1836145). Western blot analysis was then conducted, probing for phosphorylated ERK1 or ERK2 using anti-phospho ERK antiserum (Promega).
(In general: Immunoblotting shows a protein as a band on a membrane.)

Test [3] has as its system HUVEC cells. The experiment in a line: HUVEC migration, modified Boyden chamber assay. As to conditions: 18 hour assay, FIG. 14A. The format is cell-based, human. The procedure: One of the central aspects of VEGF action on endothelial cells is its ability to act as a chemoattractant and stimulate the migration of endothelial cells. HUVEC cell migration was analyzed in a modified Boyden chamber assay as follows.
Falcon 8.0 micron filter inserts (Falcon 3097) were coated with type 1 collagen (VITROGEN, COHESION). HUVEC (obtained from Cell Systems, <passage 8) were grown in Cell Systems complete media (4ZO-500) with 10% FCS. Cells were trypsinized and transferred to EBM (Endothelial basal media, Clonetics) with 0.1% BSA for the assay. Cells were plated at 5×10^4 per upper chamber. […] The assay was routinely an 18 hour assay at 37° C. For the LY294002 inhibitor experiments, cells were allowed to adhere for 30 minutes prior to addition of the inhibitor. 20 minutes after inhibitor addition, VEGF was added to the bottom well and the assay was allowed to proceed for only 4 hours to avoid the occurrence of apoptosis associated with the treatment of these primary cells with LY294002 (purchased from Biomol).
Cells were removed from the upper side of the membrane by scraping with a polyurethane swab and then the remaining cells on the bottom side of the membrane were fixed with methanol. Cells were stained with Yo-Pro Iodide nuclear stain (Molecular Probes) and counted under low power fluorescence using an Image-Pro cell recognition program.

The test system of test [4] is p38 stress-activated MAP kinase in HUVEC cells. The experiment in a line: p38 MAP kinase phosphorylation Western blot. The format is cell-based, human. As to conditions: 50 ng/ml or 10 ng/ml, 5 minutes, FIG. 12B. The procedure:
VEGF has previously been reported to stimulate the stress-activated, p38 MAP kinase [Rousseau et al., Oncogene, 15:2169–2177 (1997); Yu et al., J. Cell. Phys., 178:235–246 (1999)].
Passage 4–7 HUVEC cells (Cell Systems, Kirkland, Wash.) were grown in Cell System's complete medium (AZ0-500) with 10% fetal calf serum and growth factors on gelatin-coated dishes and made quiescent by 14 hour starvation in 0.2% serum. […] The cells were then lysed in 0.5–1 ml RIPA buffer containing 0.1 mM sodium orthovanadate, 5 mM para-nitrophenylphosphate, 10 mM sodium fluoride, 0.5 micromolar okadaic acid and a protease inhibitor cocktail (Roche MB 1836145). The phosphorylation state of p38 stress-activated MAP kinase was assessed with an anti-phospho p38 specific antiserum (NEB).

In test [5] the test system is corneal angiogenesis. Briefly: Corneal pocket angiogenesis assay. To be noted: rat, pellet with 200 ng growth factor, day 6, FIGS. 15A and 15B. The format is in vivo, Sprague-Dawley rats. Here is the method: Assays were performed as described by Polyerini et al., Methods Enzymol., 198:440–450 (1991) with the following modifications. Sprague-Dawley rats were anesthetized using a gas (isoflurane)/injectable ketamine (80 mg/kg)/xylazine (15 mg/kg) combination. The eyes were gently proptosed and secured in place using nontraumatic forceps. With a #15 blade, a 1.5 mm incision was made slightly below the center of the cornea. Using a micro spatula (ST80017, ASSI), the incision was carefully blunt-dissected through the stroma toward the outer canthus of the eye. […] After surgery, the eyes were coated with gentamicin ointment. At day 6, the animals were injected with high molecular weight FITC-dextran and euthanized to allow for visualization of the vasculature. Corneal whole mounts were made of the enucleated eyes and measurements of the neovascular area completed using computer-assisted image analysis (Image-Pro Plus).

The target of test [6] is T1, Flt-1 transfected NIH3T3 cells (Homo sapiens, UniProt P17948).
T1 construct: expressed in transfected cells; host or cells: NIH3T3 cells
T1 sequence (P17948 27-1338): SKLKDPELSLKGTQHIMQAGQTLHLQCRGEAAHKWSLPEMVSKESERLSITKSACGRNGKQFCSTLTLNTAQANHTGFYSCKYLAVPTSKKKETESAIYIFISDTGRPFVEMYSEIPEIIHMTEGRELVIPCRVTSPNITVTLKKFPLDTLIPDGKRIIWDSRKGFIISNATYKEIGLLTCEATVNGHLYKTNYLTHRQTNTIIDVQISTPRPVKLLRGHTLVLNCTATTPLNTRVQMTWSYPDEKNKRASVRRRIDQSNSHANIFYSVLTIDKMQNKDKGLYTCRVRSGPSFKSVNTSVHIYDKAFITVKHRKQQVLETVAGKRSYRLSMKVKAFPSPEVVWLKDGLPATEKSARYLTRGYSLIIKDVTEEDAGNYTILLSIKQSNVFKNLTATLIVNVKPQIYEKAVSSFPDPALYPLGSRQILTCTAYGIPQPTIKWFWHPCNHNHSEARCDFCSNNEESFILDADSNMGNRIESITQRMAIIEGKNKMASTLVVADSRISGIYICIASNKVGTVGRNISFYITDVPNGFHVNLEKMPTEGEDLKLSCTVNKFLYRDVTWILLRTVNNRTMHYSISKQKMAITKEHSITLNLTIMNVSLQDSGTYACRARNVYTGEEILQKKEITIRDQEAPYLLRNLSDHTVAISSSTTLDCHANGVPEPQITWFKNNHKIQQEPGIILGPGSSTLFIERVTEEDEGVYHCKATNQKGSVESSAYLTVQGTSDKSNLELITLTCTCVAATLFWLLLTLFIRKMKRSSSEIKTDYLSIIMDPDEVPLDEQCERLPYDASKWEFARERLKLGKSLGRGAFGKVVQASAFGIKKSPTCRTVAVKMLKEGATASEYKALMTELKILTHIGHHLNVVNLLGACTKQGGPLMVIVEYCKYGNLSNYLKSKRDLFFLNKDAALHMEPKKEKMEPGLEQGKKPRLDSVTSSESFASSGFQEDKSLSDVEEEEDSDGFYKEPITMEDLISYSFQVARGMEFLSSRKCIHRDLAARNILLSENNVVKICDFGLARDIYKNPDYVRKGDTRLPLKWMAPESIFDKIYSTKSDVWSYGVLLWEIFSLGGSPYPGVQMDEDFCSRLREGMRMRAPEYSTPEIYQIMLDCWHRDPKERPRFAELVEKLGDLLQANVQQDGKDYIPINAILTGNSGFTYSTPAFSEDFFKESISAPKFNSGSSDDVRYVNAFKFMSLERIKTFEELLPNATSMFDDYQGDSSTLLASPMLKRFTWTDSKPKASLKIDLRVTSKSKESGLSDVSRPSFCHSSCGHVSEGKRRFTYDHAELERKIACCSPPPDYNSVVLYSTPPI
The experiment in a line: Receptor-transfected cell binding assay, Flt-1. To be noted: FIG. 6. The procedure: (§1) The assay is described in detail in Example 7. Each point represents the average of duplicate determinations, and errors are estimated to be less than 15% of the values.
(§2) KDR or Flt-1 transfected NIH3T3 cells were prepared as described by Fuh et al., J. Biol. Chem., 273:11187–11204 (1998). The transfected cells were maintained in F12 media supplemented with 10% FBS and 400 ug/ml G418 (GibcoBRL). For the binding assays, the cells were plated in 12-wells plates at 1×10^6/well to reach confluency next day. The cells were then washed and blocked in Hank's buffered saline (HBS) with 1% BSA for one hour before adding ^125I-VEGF (1–109) (prepared by standard chloramine-T methods) and increasing concentrations of unlabeled VEGF variants. 50 pM and 10 pM of labeled VEGF (1–109) was used for KDR and Flt-1 cell binding, respectively. The plates were incubated at 4° C. for three hours and then washed two times with HBS with 0.5% BSA. The bound, labeled VEGF was collected by solubilizing the washed cells with 1N NaOH, and then counted in a gamma-counter (Isodata, ICN).

The target of test [7] is T2, KDR transfected NIH3T3 cells (Homo sapiens, UniProt P35968).
T2 construct: expressed in transfected cells; host or cells: NIH3T3 cells
T2 sequence (P35968 20-1356): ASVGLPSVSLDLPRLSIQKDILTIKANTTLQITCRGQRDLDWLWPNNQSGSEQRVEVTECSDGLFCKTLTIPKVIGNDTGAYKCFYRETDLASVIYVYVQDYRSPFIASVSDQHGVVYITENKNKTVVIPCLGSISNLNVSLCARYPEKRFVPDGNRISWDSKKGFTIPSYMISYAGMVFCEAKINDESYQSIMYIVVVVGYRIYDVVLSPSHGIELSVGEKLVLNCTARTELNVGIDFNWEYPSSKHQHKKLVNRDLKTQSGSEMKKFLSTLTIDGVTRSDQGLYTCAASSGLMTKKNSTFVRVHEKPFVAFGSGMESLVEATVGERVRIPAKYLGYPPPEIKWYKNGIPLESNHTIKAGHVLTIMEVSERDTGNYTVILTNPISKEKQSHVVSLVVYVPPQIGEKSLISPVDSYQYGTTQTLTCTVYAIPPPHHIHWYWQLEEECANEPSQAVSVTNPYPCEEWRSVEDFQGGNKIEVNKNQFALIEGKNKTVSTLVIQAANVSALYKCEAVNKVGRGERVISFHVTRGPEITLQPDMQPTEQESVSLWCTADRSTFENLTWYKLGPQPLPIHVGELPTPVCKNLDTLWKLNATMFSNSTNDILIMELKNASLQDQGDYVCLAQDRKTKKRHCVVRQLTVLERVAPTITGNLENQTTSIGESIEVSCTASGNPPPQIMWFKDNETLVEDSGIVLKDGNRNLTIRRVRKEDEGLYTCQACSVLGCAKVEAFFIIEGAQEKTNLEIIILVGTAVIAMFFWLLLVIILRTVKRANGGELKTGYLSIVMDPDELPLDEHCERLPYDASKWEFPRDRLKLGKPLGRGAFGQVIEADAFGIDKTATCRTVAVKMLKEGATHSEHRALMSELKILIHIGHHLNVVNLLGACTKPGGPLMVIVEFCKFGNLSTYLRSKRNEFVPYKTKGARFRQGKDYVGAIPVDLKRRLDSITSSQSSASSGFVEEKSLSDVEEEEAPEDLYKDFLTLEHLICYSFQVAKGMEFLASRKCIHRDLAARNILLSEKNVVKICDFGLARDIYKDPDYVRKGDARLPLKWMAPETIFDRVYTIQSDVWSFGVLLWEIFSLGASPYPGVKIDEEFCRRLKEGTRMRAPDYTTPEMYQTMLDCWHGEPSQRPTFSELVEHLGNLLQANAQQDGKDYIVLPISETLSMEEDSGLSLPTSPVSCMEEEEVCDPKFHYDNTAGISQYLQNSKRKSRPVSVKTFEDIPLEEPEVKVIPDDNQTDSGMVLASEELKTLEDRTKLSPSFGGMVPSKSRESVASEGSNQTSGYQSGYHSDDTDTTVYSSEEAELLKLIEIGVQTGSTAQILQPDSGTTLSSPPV
Briefly: Receptor-transfected cell binding assay, KDR. As to conditions: displacement of 125I-VEGF, 4° C., three hours, FIG. 5. Here is the method: as §1, §2
(In a radioligand displacement assay an active substance lowers the binding of a labelled ligand.)

Test [8] concerns KDR receptor. The experiment in a line: RIA assay, binding to KDR receptor. To be noted: compared to native VEGF, FIG. 8A. Here is the method:
(§3) Various assays were conducted to examine the properties and biological activities of the I43A/I46A/Q79A/I83A Flt-sel variant. For example, quantitative binding measurements were carried out using a soluble radio-immuno receptor-binding assay (RIA), as described in Example 6 above.

Test [9] relates to Flt-1 receptor. The experiment in a line: RIA assay, binding to FLT-1 receptor. As to conditions: FIG. 8B. Here is the method: as §3
Chain of Flt-1 receptor (P17948 27-331 limits assumed): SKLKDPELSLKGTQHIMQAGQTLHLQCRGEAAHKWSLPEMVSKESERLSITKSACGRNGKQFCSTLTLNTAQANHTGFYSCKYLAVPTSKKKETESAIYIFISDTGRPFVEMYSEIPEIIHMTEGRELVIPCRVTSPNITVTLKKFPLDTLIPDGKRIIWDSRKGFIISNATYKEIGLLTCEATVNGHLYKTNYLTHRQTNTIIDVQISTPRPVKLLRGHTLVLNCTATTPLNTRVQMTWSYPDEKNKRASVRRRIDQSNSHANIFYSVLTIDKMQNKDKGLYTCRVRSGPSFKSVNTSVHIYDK
Test [10] has as its system MMP-9 secretion by human aorta smooth muscle cells (ASMC). Briefly: Matrix metalloprotease 9 assay (gelatin zymography). The format is cell-based. To be noted: 40 ng/ml, 24 hours, compared to native VEGF(1–109) or PlGF, FIG. 11. Here is the method:
An assay that measures the secretion of matrix metalloprotease 9 following activation of Flt-1 expressed on human smooth aorta muscle cells was conducted (Wang and Keiser, Circ. Res., 83:832–840 (1998)). Human aorta smooth muscle cells (ASMC) (Clonetics) were maintained in SM2 media (Clonetics) at 37° C. in 5% CO2 and 95% ambient air in the presence of 10% fetal bovine serum in 6-well polystyrene plates (Becton-Dickinson). When, cells attained 90% confluence, they were growth-arrested for 24 hours in serum-free medium containing 0.2% bovine serum albumin (BSA). […] After electrophoresis, proteins were renatured by incubation of the gels for 30 minutes at room temperature in Renaturing Buffer and in Developing Buffer (Novex) for overnight at 37° C. The gels were stained with 0.25% Coomassie Brilliant Blue (Sigma). Gelatinase activity was identified as lightly stained or clear bands following destaining.
Shown is a representative zymogram of one of two independent experiments. Fold change represents the relative band density of the VEGF(1–109)-, VEGF(1–109) variants- or PlGF-treated groups versus the vehicle-treated (PBS) control.

Chain of KDR receptor (P35968 20-327 limits assumed): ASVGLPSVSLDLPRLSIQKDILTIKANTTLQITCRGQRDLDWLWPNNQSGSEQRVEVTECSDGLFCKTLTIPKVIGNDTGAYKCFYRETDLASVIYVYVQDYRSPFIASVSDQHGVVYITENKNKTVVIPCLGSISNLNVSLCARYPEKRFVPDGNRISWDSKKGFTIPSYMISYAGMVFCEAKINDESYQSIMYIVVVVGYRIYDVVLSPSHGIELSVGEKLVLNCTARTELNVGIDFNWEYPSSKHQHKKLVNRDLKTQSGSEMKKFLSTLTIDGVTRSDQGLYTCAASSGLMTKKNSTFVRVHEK

With “LK-VRB-2f: full length 1–165 VEGF variant with D63S/G65M/L66R”, the PLC-gamma phosphorylation result in [1] was “able to stimulate PLC-gamma phosphorylation to a similar extent”. Also, the “phosphorylation of ERK1 and ERK2” value in test [2] was “triggered phosphorylation of ERK1 and ERK2”. Besides, the “promotion of HUVEC cell migration” value in test [3] was “as effective as the native VEGF”. In addition, in test [4], the p38 phosphorylation result is “able to stimulate p38 phosphorylation”. Besides, in test [5], the “induction of corneal angiogenesis” value is reported as “as efficient as native VEGF in inducing corneal angiogenesis”.

B1: Flt-sel: VEGF (1–109) variant with alanine substitutions at Ile 43, Ile 46, Gln 79 and Ile 83; Flt-1 selective (protein)
chain: APMAEGGGQNHHEVVKFMDVYQRSYCHPIETLVDIFQEYPDEAEYAFKPSCVPLMRCGGCCNDEGLECVPTEESNITMAIMRAKPHQGQHIGEMSFLQHNKCECRPKKD
Regarding B1, in test [6], the “binding to Flt-1-transfected cells” value was “slightly improved binding”. The “binding to KDR-transfected NIH3T3 cells” value in test [7] is recorded as “no detectable binding”. Further, the “fold reduced KDR-binding affinity (RIA)” value in test [8] is on record as “at least 470 fold”. For the same molecule, the “affinity for Flt-1 compared to native protein (RIA)” value in test [9] is “essentially identical to that of the native protein”. The “stimulation of MMP-9 secretion” value in [10] is “fully active”.
